This is an account of results in patent publication US9920010B2, “CXCR7 receptor modulators” (IDORSIA PHARMACEUTICALS LTD, priority 2013, dated 2018).

This test addresses T1, CXCR7 (Homo sapiens, UniProt P25106).
T1 construct: host or cells: CHO-K1 (PathHunter CHO-K1 CXCR7 b-arrestin cell line, stably transfected)
Description: PathHunter CHO-K1 CXCR7 b-arrestin recruitment assay (CXCR7 agonistic activity). The settings on record: PathHunter CHO-K1 CXCR7 b-arrestin cell line. It counts as cell-based. In a few lines:
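Stable CHO-K1 line with C-terminally ProLink-tagged CXCR7 and β-arrestin 2–EA fusion; β-arrestin recruitment restores β-gal activity, read by chemiluminescence after 1 h RT detection. Cells seeded 24 h, starved in OPTIMEM 3–4 h, exposed to compounds 90 min at 37 °C in HBSS/HEPES/BSA. Geometric-mean EC50 from repeated measurements.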
Background: Activated receptors often draw arrestin, which recruitment assays turn into a signal.

Molecules are shown by their SMILES.

T1 sequence (P25106 whole entry): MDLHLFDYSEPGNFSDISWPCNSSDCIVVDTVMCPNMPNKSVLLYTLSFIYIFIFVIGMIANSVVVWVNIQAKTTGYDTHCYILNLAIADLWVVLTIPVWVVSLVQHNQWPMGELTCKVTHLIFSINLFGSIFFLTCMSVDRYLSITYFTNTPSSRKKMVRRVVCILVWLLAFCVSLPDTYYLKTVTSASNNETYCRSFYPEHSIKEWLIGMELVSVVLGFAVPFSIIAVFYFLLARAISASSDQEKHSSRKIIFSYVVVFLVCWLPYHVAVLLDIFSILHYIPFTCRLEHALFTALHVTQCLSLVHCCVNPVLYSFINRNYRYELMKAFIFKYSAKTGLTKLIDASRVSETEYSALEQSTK
T1 sequence (P32121 whole entry partner): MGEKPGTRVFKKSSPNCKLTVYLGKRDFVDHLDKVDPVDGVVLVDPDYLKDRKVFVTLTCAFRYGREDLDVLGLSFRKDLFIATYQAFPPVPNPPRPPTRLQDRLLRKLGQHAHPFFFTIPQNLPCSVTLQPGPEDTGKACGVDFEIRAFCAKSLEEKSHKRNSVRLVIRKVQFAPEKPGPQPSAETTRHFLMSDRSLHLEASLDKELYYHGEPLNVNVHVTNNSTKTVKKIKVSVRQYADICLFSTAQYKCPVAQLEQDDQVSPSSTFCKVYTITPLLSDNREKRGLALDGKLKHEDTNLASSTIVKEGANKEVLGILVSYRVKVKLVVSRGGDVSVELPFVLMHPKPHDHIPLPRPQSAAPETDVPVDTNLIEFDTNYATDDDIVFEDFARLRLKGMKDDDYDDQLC

Take `CC(C)(C)OC(=O)N1CCN(CCN(Cc2ccccc2C(F)(F)F)C(=O)CNc2cccc3c2CCN(CC2CC2)C3)CC1` [Example 216, 4-{2-[[2-(2-Cyclopropylmethyl-1,2,3,4-tetrahydro-isoquinolin-5-ylamino)-acetyl]-(2-trifluoromethyl-benzyl)-amino]-ethyl}-piperazine-1-carboxylic acid tert-butyl ester]: it took 34 nM to reach a half-maximal effect (EC50).

Take `COCC(O)CN(Cc1ccccc1C(F)(F)F)C(=O)CNc1cccc2c1CCN(CC1CC1)C2` (centres unmarked) [Example 223, 2-(2-Cyclopropylmethyl-1,2,3,4-tetrahydro-isoquinolin-5-ylamino)-N-(2-hydroxy-3-methoxy-propyl)-N-(2-trifluoromethyl-benzyl)-acetamide]: the midpoint of the response, the EC50, lay at 10 nM.

On to `CN1CCC(N(Cc2ccccc2C(F)(F)F)C(=O)CNc2cccc3c2CCN(C(=O)OC(C)(C)C)C3)CC1` [Example 10, 5-({[(1-Methyl-piperidin-4-yl)-(2-trifluoromethyl-benzyl)-carbamoyl]-methyl}-amino)-3,4-dihydro-1H-isoquinoline-2-carboxylic acid tert-butyl ester], for which the EC50 (usually the concentration needed to bring the measured effect to its halfway point) turned out to be 337 nM.

`CCCCNC(=O)N1CCc2c(cccc2NCC(=O)N(CCNC)Cc2ccccc2C(F)(F)F)C1` [compound 405] yielded an EC50 of 257 nM.

In the case of `Cc1csc(CN(CCN(C)C)C(=O)CNc2cccc3c2CCN(CC2CC2)C3)n1` [Example 266, 2-(2-Cyclopropylmethyl-1,2,3,4-tetrahydro-isoquinolin-5-ylamino)-N-(2-dimethylamino-ethyl)-N-(4-methyl-thiazol-2-ylmethyl)-acetamide], it took 16 nM to reach a half-maximal effect (EC50).

For the compound `CNCCN(Cc1ccccc1C(F)(F)F)C(=O)CNc1cccc2c1CCN(C(=O)C1CC1)C2` [Example 385, 2-(2-Cyclopropanecarbonyl-1,2,3,4-tetrahydro-isoquinolin-5-ylamino)-N-(2-methylamino-ethyl)-N-(2-trifluoromethyl-benzyl)-acetamide], a half-maximal effect (EC50) was put at 7 nM.

As for `COCCN1CCc2c(/C=C/C(=O)N(CCN(C)C)Cc3ncccc3Cl)cccc2C1` [Example 327, (E)-N-(3-Chloro-pyridin-2-ylmethyl)-N-(2-dimethylamino-ethyl)-3-[2-(2-methoxy-ethyl)-1,2,3,4-tetrahydro-isoquinolin-5-yl]-acrylamide], the concentration giving a half-maximal response (EC50) turned out to be 20 nM.

Consider `CN(C)CCN(Cc1ncccc1C(F)(F)F)C(=O)CNc1cccc2c1CCN(C1CCC1)C2` [Example 366, 2-(2-Cyclobutyl-1,2,3,4-tetrahydro-isoquinolin-5-ylamino)-N-(2-dimethylamino-ethyl)-N-(3-trifluoromethyl-pyridin-2-ylmethyl)-acetamide], for which the midpoint of the response, the EC50, lay at 2 nM.

`CC(Oc1cccc2c1CCN(CC1CC1)C2)C(=O)N(CCN(C)C)Cc1ccccc1C(F)(F)F` (racemic) [Example 350, rac-2-(2-Cyclopropylmethyl-1,2,3,4-tetrahydro-isoquinolin-5-yloxy)-N-(2-dimethylamino-ethyl)-N-(2-trifluoromethyl-benzyl)-propionamide]: the response was half-maximal at 32 nM (EC50).

The compound `CN(C)CCN(Cc1ccccc1)C(=O)CNc1cccc2c1CN(C)CC2` [compound 182] yielded an EC50 of 69 nM.

Turning to `CCN1CCc2cccc(NCC(=O)N(CCN(C)C)Cc3ccc(Cl)cn3)c2C1` [compound 530], the EC50 is 174 nM.

The compound `CN(C)CCN(Cc1ccc(F)cn1)C(=O)CNc1cccc2c1CCN(CC1CC1)C2` [Example 267, 2-(2-Cyclopropylmethyl-1,2,3,4-tetrahydro-isoquinolin-5-ylamino)-N-(2-dimethylamino-ethyl)-N-(5-fluoro-pyridin-2-ylmethyl)-acetamide] showed an EC50 of 33 nM.

Regarding `CCN1CCc2cccc(NCC(=O)N(CCN(C)C)Cc3nccs3)c2C1` [compound 541], the midpoint of the response, the EC50, lay at 175 nM.

The compound `CNCCN(Cc1ccccc1Br)C(=O)CNc1cccc2c1CCN(CC1CC1)C2` [compound 435, N-(2-Bromo-benzyl)-2-(2-cyclopropylmethyl-1,2,3,4-tetrahydro-isoquinolin-5-ylamino)-N-(2-methylamino-ethyl)-acetamide] came in with an EC50 of 7 nM.

The compound `CN(C)CCN(Cc1ncccc1Cl)C(=O)CNc1cccc2c1CN(C1CCC1)CC2` [compound 455, N-(3-Chloro-pyridin-2-ylmethyl)-2-(2-cyclobutyl-1,2,3,4-tetrahydro-isoquinolin-8-ylamino)-N-(2-dimethylamino-ethyl)-acetamide] showed an EC50 of 10 nM.

Turning to `CCN1CCc2cccc(NCC(=O)N(CCN(C)C)Cc3cccc(C(F)(F)F)n3)c2C1` [compound 532, N-(2-Dimethylamino-ethyl)-2-(2-ethyl-1,2,3,4-tetrahydro-isoquinolin-8-ylamino)-N-(6-trifluoromethyl-pyridin-2-ylmethyl)-acetamide], a half-maximal response (EC50) required 30 nM.

In the case of `CN(C)CCN(Cc1ccccc1Cl)C(=O)CCc1cccc2c1CCN(C(=O)OC(C)(C)C)C2` [Example 98, 5-{2-[(2-Chloro-benzyl)-(2-dimethylamino-ethyl)-carbamoyl]-ethyl}-3,4-dihydro-1H-isoquinoline-2-carboxylic acid tert-butyl ester], a half-maximal response (EC50) required 224 nM.

In turn, `CN1CCCC(N(Cc2ccccc2C(F)(F)F)C(=O)CNc2cccc3c2CCN(CC2CC2)C3)C1` (racemic) [compound 136] displayed an EC50 of 1 nM.

As to `CCC(=O)N1CCc2c(cccc2NCC(=O)N(CCNC)Cc2ncccc2C(F)(F)F)C1` [compound 409, N-(2-Methylamino-ethyl)-2-(2-propionyl-1,2,3,4-tetrahydro-isoquinolin-5-ylamino)-N-(3-trifluoromethyl-pyridin-2-ylmethyl)-acetamide], the midpoint of the response, the EC50, lay at 8 nM.

`CN(C)CCN(Cc1ccccc1)C(=O)CNc1cccc2c1CN(CC1CC1)CC2` [compound 187, N-Benzyl-2-(2-cyclopropylmethyl-1,2,3,4-tetrahydro-isoquinolin-8-ylamino)-N-(2-dimethylamino-ethyl)-acetamide] registered an EC50 of 34 nM.

Consider `O=C(CNc1cccc2c1CCN(CC1CC1)C2)N(CCN1CCCC1)Cc1ccccc1C(F)(F)F` [Example 62, 2-(2-Cyclopropylmethyl-1,2,3,4-tetrahydro-isoquinolin-5-ylamino)-N-(2-pyrrolidin-1-yl-ethyl)-N-(2-trifluoromethyl-benzyl)-acetamide], for which the response was half-maximal at 1 nM (EC50).

`CC(C)CN1CCc2c(cccc2OCC(=O)N(CCN(C)C)Cc2ccccc2)C1` [compound 168, N-Benzyl-N-(2-dimethylamino-ethyl)-2-(2-isobutyl-1,2,3,4-tetrahydro-isoquinolin-5-yloxy)-acetamide] registered an EC50 of 20 nM.

For `CN(CCN(Cc1ccccc1C(F)(F)F)C(=O)CNc1cccc2c1CCN(CC1CC1)C2)CC1CC1` [compound 450, N-[2-(Cyclopropylmethyl-methyl-amino)-ethyl]-2-(2-cyclopropylmethyl-1,2,3,4-tetrahydro-isoquinolin-5-ylamino)-N-(2-trifluoromethyl-benzyl)-acetamide], the EC50 came out at 1 nM.

`CCC(=O)N1CCc2c(cccc2NCC(=O)N(CCN(C)C)Cc2cccc(Cl)c2)C1` [Example 18, N-(3-Chloro-benzyl)-N-(2-dimethylamino-ethyl)-2-(2-propionyl-1,2,3,4-tetrahydro-isoquinolin-5-ylamino)-acetamide] returned an EC50 of 61 nM.

In turn, `CN1CCCC(N(Cc2ccccc2C(F)(F)F)C(=O)CNc2cccc3c2CCN(C(=O)OC(C)(C)C)C3)C1` (racemic) [Example 11, rac-5-({[(1-Methyl-piperidin-3-yl)-(2-trifluoromethyl-benzyl)-carbamoyl]-methyl}-amino)-3,4-dihydro-1H-isoquinoline-2-carboxylic acid tert-butyl ester] gave an EC50 of 52 nM.

The compound `COCCN1CCc2c(cccc2NCC(=O)N(CCN(C)C)Cc2ncccc2C(F)(F)F)C1` [Example 371, N-(2-Dimethylamino-ethyl)-2-[2-(2-methoxy-ethyl)-1,2,3,4-tetrahydro-isoquinolin-5-ylamino]-N-(3-trifluoromethyl-pyridin-2-ylmethyl)-acetamide] came in with an EC50 of 16 nM.

`CN(C)CCN(Cc1ccccc1C(F)(F)F)C(=O)CNc1cccc2c1CCN(C1CCC1)C2` [Example 352, 2-(2-Cyclobutyl-1,2,3,4-tetrahydro-isoquinolin-5-ylamino)-N-(2-dimethylamino-ethyl)-N-(2-trifluoromethyl-benzyl)-acetamide] displayed an EC50 of 4 nM.

`CNCCN(Cc1ncccc1C(F)(F)F)C(=O)CNc1cccc2c1CCN(C(=O)OC(C)C)C2` [compound 424] yielded an EC50 of 60 nM.

In the case of `C=CCN1CCc2c(CCC(=O)N(CCN(C)C)Cc3ccccc3C(F)(F)F)cccc2C1` [Example 349, 3-(2-Allyl-1,2,3,4-tetrahydro-isoquinolin-5-yl)-N-(2-dimethylamino-ethyl)-N-(2-trifluoromethyl-benzyl)-propionamide], a half-maximal response (EC50) required 12 nM.

As for `CN(C)CCN(Cc1ccccc1Cl)C(=O)CNc1cccc2c1CCN(CC1CC1)C2` [compound 134, N-(2-Chloro-benzyl)-2-(2-cyclopropylmethyl-1,2,3,4-tetrahydro-isoquinolin-5-ylamino)-N-(2-dimethylamino-ethyl)-acetamide], the EC50 worked out at 2 nM.

In turn, `CCNCCN(Cc1ccccc1C(F)(F)F)C(=O)CNc1cccc2c1CCN(CC1CC1)C2` [compound 439, 2-(2-Cyclopropylmethyl-1,2,3,4-tetrahydro-isoquinolin-5-ylamino)-N-(2-ethylamino-ethyl)-N-(2-trifluoromethyl-benzyl)-acetamide] came in with a concentration giving a half-maximal response (EC50) of 3 nM.

For `O=C(CNc1cccc2c1CCN(CC1CC1)C2)N(Cc1ccccc1C(F)(F)F)CC1COCCO1` (centres unmarked) [Example 226, 2-(2-Cyclopropylmethyl-1,2,3,4-tetrahydro-isoquinolin-5-ylamino)-N-[1,4]dioxan-2-ylmethyl-N-(2-trifluoromethyl-benzyl)-acetamide], a half-maximal response (EC50) required 13 nM.
